Reference: ChEMBL document CHEMBL1201862, “PubChem BioAssay data set” (2004)
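How tested: cells in 96-well plates exposed to compound for 48 hours at five concentrations. At the GI50, growth is halved.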 The source made the active and inactive calls. Rule as the data show it: active = GI50 up to about 1.1 µM and inactive = higher.

Columns and labels:
Experiment in all cases: inhibition of tumour cell growth, NCI panel, 48 h
IGROV-1 = test system: IGROV-1
SF-539 = test system: SF-539
SF-295 = test system: SF-295
PC-3 = test system: PC-3
Hs-578T = test system: Hs-578T
SNB-19 = test system: SNB-19
EKVX = test system: EKVX
UACC-62 = test system: UACC-62
MDA-MB-231 = test system: MDA-MB-231
HOP-62 = test system: HOP-62
SK-MEL-28 = test system: SK-MEL-28
CAKI-1 = test system: CAKI-1
RPMI-8226 = test system: RPMI-8226
ACHN = test system: ACHN
SR = test system: SR
HCT-15 = test system: HCT-15
SK-MEL-5 = test system: SK-MEL-5
HOP-92 = test system: HOP-92
MCF7 = test system: MCF7
NCI-H23 = test system: NCI-H23
Malme-3M = test system: Malme-3M
MDA-MB-435 = test system: MDA-MB-435
COLO 205 = test system: COLO 205
DU-145 = test system: DU-145
SW-620 = test system: SW-620
SF-268 = test system: SF-268
SN12C = test system: SN12C
NCI-H460 = test system: NCI-H460
HL-60 = test system: HL-60
SNB-75 = test system: SNB-75
TK-10 = test system: TK-10
786-0 = test system: 786-0
LOX IMVI = test system: LOX IMVI
OVCAR-4 = test system: OVCAR-4
RXF 393 = test system: RXF 393
NCI/ADR-RES = test system: NCI/ADR-RES
UACC-257 = test system: UACC-257
MOLT-4 = test system: MOLT-4
KM12 = test system: KM12
T47D = test system: T47D
SK-OV-3 = test system: SK-OV-3
HCC 2998 = test system: HCC 2998
HT-29 = test system: HT-29
BT-549 = test system: BT-549
A549 = test system: A549
NCI-H522 = test system: NCI-H522
OVCAR-8 = test system: OVCAR-8
M14 = test system: M14
NCI-H226 = test system: NCI-H226
HCT-116 = test system: HCT-116
UO-31 = test system: UO-31
U-251 = test system: U-251
SK-MEL-2 = test system: SK-MEL-2
CCRF-CEM = test system: CCRF-CEM
K562 = test system: K562
A498 = test system: A498
OVCAR-5 = test system: OVCAR-5

For `NC1=NNC2(C(N)=N1)c1ccccc1-c1ccccc12`, the GI50 (IGROV-1) was > 10 µM (inactive), the GI50 (SF-539) was > 10 µM (inactive) and the GI50 (SF-295) was > 10 µM (inactive). The GI50 (PC-3) was > 10 µM (inactive), the GI50 (Hs-578T) was > 10 µM (inactive) and the GI50 (SNB-19) was > 10 µM (inactive). For the same molecule, the GI50 (EKVX) was > 10 µM (inactive), the GI50 (UACC-62) was > 10 µM (inactive) and the GI50 (MDA-MB-231) was > 10 µM (inactive). The GI50 (HOP-62) was > 10 µM (inactive), the GI50 (SK-MEL-28) was > 10 µM (inactive) and the GI50 (CAKI-1) was > 10 µM (inactive). For the same molecule, the GI50 (RPMI-8226) was > 10 µM (inactive), the GI50 (ACHN) was > 10 µM (inactive) and the GI50 (SR) was > 10 µM (inactive). For the same molecule, the GI50 (HCT-15) was greater than 10 µM, the GI50 (SK-MEL-5) was > 10 µM (inactive) and the GI50 (HOP-92) was > 10 µM (inactive). The GI50 (MCF7) was > 10 µM (inactive), the GI50 (NCI-H23) was > 10 µM (inactive) and the GI50 (Malme-3M) was > 10 µM (inactive). The GI50 (MDA-MB-435) was > 10 µM (inactive), the GI50 (COLO 205) was > 10 µM (inactive) and the GI50 (DU-145) was > 10 µM (inactive). The GI50 (SW-620) was > 10 µM (inactive), the GI50 (SF-268) was > 10 µM (inactive) and the GI50 (SN12C) was > 10 µM (inactive). For the same molecule, the GI50 (NCI-H460) was > 10 µM (inactive), the GI50 (HL-60) was > 10 µM (inactive) and the GI50 (SNB-75) was > 10 µM (inactive). For the same molecule, the GI50 (TK-10) was > 10 µM (inactive), the GI50 (786-0) was > 10 µM (inactive) and the GI50 (LOX IMVI) was > 10 µM (inactive). The GI50 (OVCAR-4) was > 10 µM (inactive), the GI50 (RXF 393) was > 10 µM (inactive) and the GI50 (NCI/ADR-RES) was > 10 µM (inactive). For the same molecule, the GI50 (UACC-257) was > 10 µM (inactive), the GI50 (MOLT-4) was > 10 µM (inactive) and the GI50 (KM12) was > 10 µM (inactive). For the same molecule, the GI50 (T47D) was > 10 µM (inactive), the GI50 (SK-OV-3) was > 10 µM (inactive) and the GI50 (HCC 2998) was > 10 µM (inactive). The GI50 (HT-29) was > 10 µM (inactive), the GI50 (BT-549) was > 10 µM (inactive) and the GI50 (A549) was > 10 µM (inactive). For the same molecule, the GI50 (NCI-H522) was > 10 µM (inactive), the GI50 (OVCAR-8) was > 10 µM (inactive) and the GI50 (M14) was > 10 µM (inactive). For the same molecule, the GI50 (NCI-H226) was > 10 µM (inactive), the GI50 (HCT-116) was > 10 µM (inactive) and the GI50 (UO-31) was 5.13 µM (inactive).
With `Cc1nc(-[n+]2nc(-c3ccncc3)nn2-c2ccccc2)sc1C` the GI50 (IGROV-1) was 5.01 µM (inactive), the GI50 (SF-539) was 8.53 µM (inactive) and the GI50 (U-251) was 29.4 µM (inactive). The GI50 (SF-295) was 9.93 µM (inactive), the GI50 (PC-3) was 15.5 µM (inactive) and the GI50 (Hs-578T) was 44.4 µM (inactive). The GI50 (SNB-19) was 35.9 µM (inactive), the GI50 (EKVX) was 27.2 µM (inactive) and the GI50 (UACC-62) was 8.36 µM (inactive). The GI50 (MDA-MB-231) was 32.1 µM (inactive), the GI50 (HOP-62) was 7.96 µM (inactive) and the GI50 (SK-MEL-28) was 34.5 µM (inactive). The GI50 (CAKI-1) was 19.1 µM (inactive), the GI50 (RPMI-8226) was 68.1 µM (inactive) and the GI50 (ACHN) was 4.8 µM (inactive). For the same molecule, the GI50 (SR) was > 100 µM (inactive), the GI50 (SK-MEL-2) was > 100 µM (inactive) and the GI50 (CCRF-CEM) was 17.5 µM (inactive). For the same molecule, the GI50 (HCT-15) was 16.4 µM, the GI50 (SK-MEL-5) was 29.4 µM (inactive) and the GI50 (MCF7) was 18.6 µM (inactive). For the same molecule, the GI50 (NCI-H23) was 57.9 µM (inactive), the GI50 (Malme-3M) was > 100 µM (inactive) and the GI50 (MDA-MB-435) was 23.4 µM (inactive). The GI50 (COLO 205) was 34.4 µM (inactive), the GI50 (DU-145) was 36.2 µM (inactive) and the GI50 (SW-620) was 20.2 µM (inactive). For the same molecule, the GI50 (SF-268) was 21.4 µM (inactive), the GI50 (SN12C) was 49.4 µM (inactive) and the GI50 (HL-60) was 57.5 µM (inactive). For the same molecule, the GI50 (SNB-75) was 42.9 µM (inactive), the GI50 (TK-10) was 21.8 µM (inactive) and the GI50 (786-0) was 19.1 µM (inactive). The GI50 (LOX IMVI) was 2.69 µM (inactive), the GI50 (RXF 393) was 18.7 µM (inactive) and the GI50 (NCI/ADR-RES) was 84.5 µM (inactive). The GI50 (UACC-257) was 26.7 µM (inactive), the GI50 (MOLT-4) was 4.72 µM (inactive) and the GI50 (K562) was 4.91 µM (inactive). The GI50 (A498) was 92.7 µM (inactive), the GI50 (KM12) was 36.9 µM (inactive) and the GI50 (T47D) was 39.4 µM (inactive). For the same molecule, the GI50 (OVCAR-5) was 44.6 µM (inactive), the GI50 (SK-OV-3) was 21.2 µM (inactive) and the GI50 (HCC 2998) was > 100 µM (inactive). For the same molecule, the GI50 (HT-29) was 55.1 µM (inactive), the GI50 (BT-549) was 17.1 µM (inactive) and the GI50 (A549) was 30.3 µM (inactive). For the same molecule, the GI50 (NCI-H522) was 3.15 µM (inactive), the GI50 (OVCAR-8) was 42.9 µM (inactive) and the GI50 (M14) was 49.3 µM (inactive). For the same molecule, the GI50 (NCI-H226) was 32.1 µM (inactive), the GI50 (HCT-116) was 13.4 µM (inactive) and the GI50 (UO-31) was 7.73 µM (inactive).
